Laboratory results published in patent publication US20220127565A1, “A Self-Assembling Short Amphiphilic Peptide And Related Methods And Uses” (Agency for Science, Technology and Research, priority 2019, published 2022).
Residues, ends and D or L forms follow the SMILES beside them.

Tests used:
[1] = Gelation in dimethylsulfoxide; assay type: physicochemical
[2] = Circular dichroism spectroscopy, secondary structure transitions with increasing peptide concentration; assay type: physicochemical; details: for Secondary structure transitions: Table 1; for Secondary structure / conformational transitions (circular dichroism): increasing peptide concentration
Procedure: Circular Dichroism Spectroscopy.
CD spectra were collected with a Jasco CD spectrophotometer fitted with a temperature controller, using quartz suprasil cuvettes with an optical path length of 1 mm. All samples were prepared in milIQ water and equilibrated for an hour at room temperature before measurement. Data acquisition was performed for wavelength range from 190-260 nm with a spectral bandwidth of 1.0 nm. All spectra were baseline-corrected using milliQ water as baseline. The mean residue ellipticity (MRE) was calculated as follows:
[θ]=θ/(10·N·c·l) where […] represents the ellipticity in millidegrees, N the number of amino acid residues, c the molar concentration in mol·L-1, and I the cell path length in cm.

[3] = Gelation / hydrogel formation, minimum gelation concentration in water, buffered saline or PBS; assay type: physicochemical; details: for Self-assembly into hydrogels / scaffolds: aqueous conditions; for Minimum gelation concentration in buffered saline / Self-assembly into hydrogels / scaffolds: buffered saline
Procedure: Preparation of Hydrogels.
Lyophilized peptide powder was dissolved in milliQ water and mixed for 30 seconds by vortexing to obtain a homogenous solution. 10% volume of 10-times phosphate-buffered saline was subsequently added and mixed by pipetting. Gelation occurred between seconds (PBS) to overnight (water), depending on the peptide concentration and solution used.

[4] = Rheology, storage modulus of hydrogels; assay type: physicochemical; details: hydrogels prepared in buffered saline
Procedure: Hydrogel samples were prepared in polydimethysiloxane moulds to obtain approximately 1 mm thick, 8 mm diameter discs. Dynamic strain and oscillatory frequency sweep experiments were carried out using the ARES-G2 Rheometer (TA Instruments, Piscataway, N.J.) with 8 mm titanium parallel plate geometry. The readings of 3 samples were averaged for each condition.

[5] = system: embryonic stem cells H1 and H9; assay: 3D culture of pluripotent stem cells encapsulated in hydrogel droplets; assay type: cell-based, human; details: for Colony formation of single cell suspensions in hydrogel: H1 and H9, cell encapsulation densities exceeding 5×10^6 cells/mL
Procedure: (§1) 3D Encapsulation of Stem Cells.
(§2) H1 embryonic stem cells cultured on Matrigel were dissociated into single cells using TrypLE Express, and re-suspended in 50% mTESR in PBS at an approximate concentration of 4×10^6, 10^7 or 1.6×10^7 cells/mL. 0.5 μL of cells was injected into a droplet of 2 μL 10 mg/mL peptide solution. Warmed culture media (mTESR) containing ROCK inhibitor Y-27632 was added for the first day and replaced by either mTESR or endoderm differentiation media subsequently. The endoderm differentiation protocol was adapted from Spence et al (2011). Briefly, the encapsulated cells were exposed to RPMI media containing 100 ng/mL Activin A, 2 mM glutamax, 1% penicillin-streptomycin and increasing concentrations of defined fetal bovine serum. After 3 days, the hydrogel droplets were washed with RPMI and incubated in hindgut differentiation media (RPMI media containing 1% defined fetal bovine serum, 1% penicillin-streptomycin, 2 mM glutamax, 500 ng/mL FGF4 and 500 ng/mL Wnt3A.
Immunohistochemistry and Confocal Microscopy Imaging.
Cell samples were fixed in 4% paraformaldehyde for 15 minutes and permeabilized in 0.01% Triton-X for 10 minutes. The encapsulated human embryonic stem cells were incubated at 4° C. overnight in 5% Bovine-Serum Albumin containing primary antibodies. The corresponding secondary antibodies and DAPI were applied for 90 minutes before the samples were imaged. Confocal microscopy was performed using a Zeiss LSM 510 microscope at the Institute of Medical Biology Microscopy Unit (A*STAR, Singapore).

[6] = system: 8 cm×8 cm excisional full thickness wound; assay: Porcine wound healing study of peptide hydrogel wound dressings; assay type: in vivo; details: hydrogel applied weekly for 6 weeks
Procedure: A porcine wound healing study was performed to evaluate the peptide hydrogels for wound healing applications. An 8 cm×8 cm excisional full thickness wound was created on the back of the animal, and three of the peptide hydrogels were applied using a polydimethylsiloxane mould. Wound dressing changes were carried out weekly for 6 weeks, with application of fresh hydrogel.

[7] = system: H1 human embryonic stem cells; assay: Chromosomal aberrations after 5 passages of 3D culture; assay type: cell-based
Procedure: as §1, §2

H9 embryonic stem cells = assay: 3D endoderm / hindgut differentiation of encapsulated stem cells (H9); assay type: cell-based, human; details: H9 in 8 mg/mL hydrogel droplets
[8] = TGA degradation temperature; assay type: physicochemical
[9] = Thixotropy of hydrogel, recovery after vortexing; assay type: physicochemical; details: hydrogel disturbed by vortexing

Ac-GAVLI-NH2 [Ac-GAVLI-NH2]
Gel formation in dimethylsulfoxide [1]: thixotrophic gels

Ac-ILVAGK-NH2 [Ac-ILVAGK-NH2, reference compound]
Secondary structure transitions [2]: Yes | Minimum gelation concentration in buffered saline [3]: 3 mg/mL | Storage moduli of hydrogels [4]: ~10 kPa | Colony formation of single cell suspensions in hydrogel [5]: several colonies developed

CC[C@H](C)[C@H](NC(=O)[C@@H](NC(=O)[C@H](CCCCN)NC(C)=O)C(C)C)C(N)=O [Ac-KVI-NH2] (Ac-Lys-Val-Ile-NH2)
Secondary structure transitions [2]: Yes | Secondary structure / conformational transitions (circular dichroism) [2]: same secondary structure transitions as their parent sequences | Minimum gelation concentration in buffered saline [3]: >30 mg/mL

H-SGAVLI-NH2 [SGAVLI-NH2]
Gel formation in dimethylsulfoxide [1]: thixotrophic gels | Reduction of wound size [6]: effective reduction of wound size

Ac-SGAVIA-NH2 [Ac-SGAVIA-NH2]
Gel formation in dimethylsulfoxide [1]: thixotrophic gels

Ac-KGAVLI-NH2 [Ac-KGAVLI-NH2]
Secondary structure transitions [2]: Yes | Secondary structure / conformational transitions (circular dichroism) [2]: same secondary structure transitions as their parent sequences | Minimum gelation concentration in buffered saline [3]: 3 mg/mL | Colony formation at lower cell seeding densities ([5]; 2×10^6 cells/mL): formation of several colonies within a single droplet | Colony formation of single cell suspensions in hydrogel [5]: more likely to aggregate into a single colony | Pluripotency, staining of Oct4 and Tral-60 biomarkers ([5]; cultured in defined mTESR media): retained their pluripotency | Retention of the expanding colonies ([5]; day 7, bioprinted hydrogel droplets encapsulating cells): higher retention of the expanding colonies | Cell migration and consistency in generating single colonies ([5]; synthetic 3D stem cell culture substrate, compared to Gen1 analog): enhanced cell migration and better consistency in generating single colonies | Mutagenicity, chromosomal aberrations [7]: non-mutagenic | Expression of hindgut biomarker Cdx2 (H9 embryonic stem cells; day 9): expression of hindgut biomarker Cdx2 was observed | Cells expressing Sox17, flow cytometry (H9 embryonic stem cells; definitive endoderm differentiation): 90% | Reduction of wound size [6]: effective reduction of wound size

CC[C@H](C)[C@H](NC(C)=O)C(=O)N[C@H](C(=O)N[C@@H](CCCCN)C(N)=O)C(C)C [Ac-IVK-NH2, reference compound] (Ac-Ile-Val-Lys-NH2)
Secondary structure transitions [2]: Yes | Minimum gelation concentration in buffered saline [3]: >30 mg/mL

Ac-HGAVLI-NH2 [Ac-HGAVLI-NH2]
Gel formation in dimethylsulfoxide [1]: thixotrophic gels | Reduction of wound size [6]: effective reduction of wound size

H-KGAVLI-NH2 [KGAVLI-NH2]
Secondary structure transitions [2]: Yes | Secondary structure / conformational transitions (circular dichroism) [2]: same conformational transitions | Self-assembly into hydrogels / scaffolds [3]: forms hydrogels in buffered saline | Minimum gelation concentration in buffered saline [3]: 20 mg/mL

Ac-HGAVIA-NH2 [Ac-HGAVIA-NH2]
Gel formation in dimethylsulfoxide [1]: thixotrophic gels

CC[C@H](C)[C@H](NC(C)=O)C(=O)N[C@H](C(=O)N[C@@H](CC(=O)O)C(=O)O)C(C)C [Ac-IVD, reference compound] (Ac-Ile-Val-Asp-OH; C-terminus assumed)
[Peptide] min, PBS [3]: 19.2 mg/mL | [Peptide] min, water [3]: 40.8 mg/mL | TGA Degradation Temperature [8]: 323.6 °C

CC[C@H](C)[C@H](NC(C)=O)C(=O)N[C@H](C(=O)N[C@@H](CC(=O)O)C(N)=O)C(C)C [Ac-IVD-NH2, reference compound] (Ac-Ile-Val-Asp-NH2)
[Peptide] min, PBS [3]: 33.9 mg/mL | [Peptide] min, water [3]: 44.9 mg/mL | TGA Degradation Temperature [8]: 328.5 °C

CC[C@H](C)[C@H](NC(=O)[C@@H](NC(=O)[C@H](CC(=O)O)NC(C)=O)C(C)C)C(N)=O [Ac-DVI-NH2] (Ac-Asp-Val-Ile-NH2)
[Peptide] min, PBS [3]: 9.9 mg/mL | Self-assembly into hydrogels / scaffolds [3]: self-assemble into nanofibrous scaffolds | [Peptide] min, water [3]: 11.6 mg/mL | TGA Degradation Temperature [8]: 321.5 °C | Standing time to return to gel state after vortexing [9]: 10 min
